Assay results as given in ChEMBL document CHEMBL1201862, “PubChem BioAssay data set” (2004).
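Cultured in 96-well plates, cells were exposed to test compound for 48 hours across five concentrations. GI50 marks 50% less growth.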 Activity calls are given as the source filed them. Cut-off read from the data, not from the text of the source: active = GI50 up to about 1.1 µM and inactive = higher.

How the values were obtained:
Assay in all cases: NCI tumour cell line growth inhibition, 48 h
OVCAR-4 = tested on: OVCAR-4
Malme-3M = tested on: Malme-3M
DLD-1 = tested on: DLD-1
CCRF-CEM = tested on: CCRF-CEM
RXF 393 = tested on: RXF 393
ACHN = tested on: ACHN
HCC 2998 = tested on: HCC 2998
DMS-114 = tested on: DMS-114
HCT-15 = tested on: HCT-15
SNB-75 = tested on: SNB-75
K562 = tested on: K562
UACC-62 = tested on: UACC-62
EKVX = tested on: EKVX
SW-620 = tested on: SW-620
HOP-62 = tested on: HOP-62
HL-60 = tested on: HL-60
HOP-92 = tested on: HOP-92
A498 = tested on: A498
A549 = tested on: A549
U-251 = tested on: U-251
KM-20L2 = tested on: KM-20L2
HOP-18 = tested on: HOP-18
SF-295 = tested on: SF-295
NCI-H23 = tested on: NCI-H23
OVCAR-8 = tested on: OVCAR-8
NCI-H460 = tested on: NCI-H460
SK-MEL-5 = tested on: SK-MEL-5
UACC-257 = tested on: UACC-257
MOLT-4 = tested on: MOLT-4
SNB-19 = tested on: SNB-19
LOX IMVI = tested on: LOX IMVI
NCI-H226 = tested on: NCI-H226
OVCAR-5 = tested on: OVCAR-5
SF-268 = tested on: SF-268
NCI-H522 = tested on: NCI-H522
SNB-78 = tested on: SNB-78
SR = tested on: SR
SN12C = tested on: SN12C
IGROV-1 = tested on: IGROV-1
SF-539 = tested on: SF-539
SK-MEL-2 = tested on: SK-MEL-2
HCT-116 = tested on: HCT-116
LXFL 529 = tested on: LXFL 529
HT-29 = tested on: HT-29
SK-MEL-28 = tested on: SK-MEL-28
786-0 = tested on: 786-0
DMS-273 = tested on: DMS-273
KM12 = tested on: KM12
SK-OV-3 = tested on: SK-OV-3
TK-10 = tested on: TK-10
M14 = tested on: M14
UO-31 = tested on: UO-31
RPMI-8226 = tested on: RPMI-8226
CAKI-1 = tested on: CAKI-1
OVCAR-3 = tested on: OVCAR-3
M19-MEL = tested on: M19-MEL
COLO 205 = tested on: COLO 205

c1c(N2CCOCC2)s[s+]c1N1CCOCC1
GI50 (OVCAR-4): > 100 µM (inactive)
GI50 (Malme-3M): > 100 µM (inactive)
GI50 (DLD-1): > 100 µM (inactive)
GI50 (CCRF-CEM): > 100 µM (inactive)
GI50 (RXF 393): > 100 µM (inactive)
GI50 (ACHN): > 100 µM (inactive)
GI50 (HCC 2998): > 100 µM (inactive)
GI50 (DMS-114): > 100 µM (inactive)
GI50 (HCT-15): > 100 µM
GI50 (SNB-75): > 100 µM (inactive)
GI50 (K562): > 100 µM (inactive)
GI50 (UACC-62): > 100 µM (inactive)
GI50 (EKVX): > 100 µM (inactive)
GI50 (SW-620): > 100 µM (inactive)
GI50 (HOP-62): > 100 µM (inactive)
GI50 (HL-60): > 100 µM (inactive)
GI50 (HOP-92): > 100 µM (inactive)
GI50 (A498): > 100 µM (inactive)
GI50 (A549): > 100 µM (inactive)
GI50 (U-251): > 100 µM (inactive)
GI50 (KM-20L2): > 100 µM (inactive)
GI50 (HOP-18): > 100 µM (inactive)
GI50 (SF-295): > 100 µM (inactive)
GI50 (NCI-H23): > 100 µM (inactive)
GI50 (OVCAR-8): > 100 µM (inactive)
GI50 (NCI-H460): > 100 µM (inactive)
GI50 (SK-MEL-5): > 100 µM (inactive)
GI50 (UACC-257): > 100 µM (inactive)
GI50 (MOLT-4): > 100 µM (inactive)
GI50 (SNB-19): > 100 µM (inactive)
GI50 (LOX IMVI): > 100 µM (inactive)
GI50 (NCI-H226): 13.3 µM (inactive)
GI50 (OVCAR-5): > 100 µM (inactive)
GI50 (SF-268): > 100 µM (inactive)
GI50 (NCI-H522): > 100 µM (inactive)
GI50 (SNB-78): > 100 µM (inactive)
GI50 (SR): > 100 µM (inactive)
GI50 (SN12C): > 100 µM (inactive)
GI50 (IGROV-1): > 100 µM (inactive)
GI50 (SF-539): > 100 µM (inactive)
GI50 (SK-MEL-2): 7.06 µM (inactive)
GI50 (HCT-116): > 100 µM (inactive)
GI50 (LXFL 529): > 100 µM (inactive)
GI50 (HT-29): > 100 µM (inactive)
GI50 (SK-MEL-28): > 100 µM (inactive)
GI50 (786-0): > 100 µM (inactive)
GI50 (DMS-273): > 100 µM (inactive)
GI50 (KM12): > 100 µM (inactive)
GI50 (SK-OV-3): > 100 µM (inactive)
GI50 (TK-10): 76.6 µM (inactive)
GI50 (M14): > 100 µM (inactive)
GI50 (UO-31): > 100 µM (inactive)
GI50 (RPMI-8226): > 100 µM (inactive)
GI50 (CAKI-1): > 100 µM (inactive)

COc1ccc(NC(=O)CSc2nnc(Cc3ccccc3)o2)cc1
GI50 (OVCAR-3): 78.3 µM (inactive)
GI50 (OVCAR-4): > 100 µM (inactive)
GI50 (Malme-3M): > 100 µM (inactive)
GI50 (DLD-1): > 100 µM (inactive)
GI50 (CCRF-CEM): 82.2 µM (inactive)
GI50 (RXF 393): > 100 µM (inactive)
GI50 (ACHN): > 100 µM (inactive)
GI50 (HCC 2998): > 100 µM (inactive)
GI50 (DMS-114): 17.9 µM (inactive)
GI50 (M19-MEL): 82.6 µM (inactive)
GI50 (HCT-15): > 100 µM
GI50 (SNB-75): > 100 µM (inactive)
GI50 (K562): > 100 µM (inactive)
GI50 (UACC-62): > 100 µM (inactive)
GI50 (SW-620): > 100 µM (inactive)
GI50 (HOP-62): > 100 µM (inactive)
GI50 (A498): > 100 µM (inactive)
GI50 (A549): > 100 µM (inactive)
GI50 (U-251): 34.5 µM (inactive)
GI50 (KM-20L2): > 100 µM (inactive)
GI50 (HOP-18): > 100 µM (inactive)
GI50 (SF-295): 55.6 µM (inactive)
GI50 (NCI-H23): 61.5 µM (inactive)
GI50 (OVCAR-8): > 100 µM (inactive)
GI50 (NCI-H460): > 100 µM (inactive)
GI50 (SK-MEL-5): 85.1 µM (inactive)
GI50 (UACC-257): > 100 µM (inactive)
GI50 (MOLT-4): > 100 µM (inactive)
GI50 (SNB-19): 97.7 µM (inactive)
GI50 (LOX IMVI): 53.5 µM (inactive)
GI50 (NCI-H226): > 100 µM (inactive)
GI50 (OVCAR-5): > 100 µM (inactive)
GI50 (SF-268): 88.1 µM (inactive)
GI50 (NCI-H522): 53.7 µM (inactive)
GI50 (SNB-78): > 100 µM (inactive)
GI50 (COLO 205): 94.8 µM (inactive)
GI50 (SN12C): > 100 µM (inactive)
GI50 (IGROV-1): > 100 µM (inactive)
GI50 (SF-539): > 100 µM (inactive)
GI50 (SK-MEL-2): > 100 µM (inactive)
GI50 (HCT-116): > 100 µM (inactive)
GI50 (LXFL 529): > 100 µM (inactive)
GI50 (HT-29): 74.1 µM (inactive)
GI50 (SK-MEL-28): > 100 µM (inactive)
GI50 (786-0): > 100 µM (inactive)
GI50 (DMS-273): > 100 µM (inactive)
GI50 (KM12): > 100 µM (inactive)
GI50 (SK-OV-3): > 100 µM (inactive)
GI50 (TK-10): > 100 µM (inactive)
GI50 (M14): > 100 µM (inactive)
GI50 (UO-31): > 100 µM (inactive)
GI50 (RPMI-8226): 41.4 µM (inactive)
GI50 (CAKI-1): > 100 µM (inactive)
